{"source": "paper PMC5063996", "about": "“The Mechanism by Which Arabinoxylanases Can Recognize Highly Decorated Xylans” (The Journal of Biological Chemistry, 2016)", "target": "T1, CtGH5-CBM6 (CtGH5-CtCBM6, derivative of arabinoxylanase CtXyl5A) (Acetivibrio thermocellus, UniProt A3DHG6, E279S)", "T1 construct": "gene Cthe_2193; no signal peptide, CBM13, Fn3, CBM62 or dockerin; C-terminal His6; E. coli BL21(DE3)", "T1 sequence (A3DHG6 entry or part of it E279S)": "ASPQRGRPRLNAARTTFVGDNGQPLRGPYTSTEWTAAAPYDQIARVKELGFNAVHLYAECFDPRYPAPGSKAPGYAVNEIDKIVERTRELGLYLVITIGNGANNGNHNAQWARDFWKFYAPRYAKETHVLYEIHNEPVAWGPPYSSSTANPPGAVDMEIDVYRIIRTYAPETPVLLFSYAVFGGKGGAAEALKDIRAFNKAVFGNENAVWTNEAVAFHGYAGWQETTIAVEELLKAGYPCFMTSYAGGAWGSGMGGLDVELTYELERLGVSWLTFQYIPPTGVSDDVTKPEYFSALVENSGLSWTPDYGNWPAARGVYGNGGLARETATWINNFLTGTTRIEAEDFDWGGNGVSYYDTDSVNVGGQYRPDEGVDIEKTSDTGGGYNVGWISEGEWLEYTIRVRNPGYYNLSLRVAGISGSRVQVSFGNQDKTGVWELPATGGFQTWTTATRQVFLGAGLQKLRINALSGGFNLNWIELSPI", "experiment": "X-ray crystal structure, co-crystal, […] Å", "format": "binding", "conditions": "nucleophile-inactive mutant; 10 mM WAX-derived oligosaccharide; subsites -1 to -4 and -2*; PDB code printed as 2LA2 (apparent misprint for 5LA2)"}
{"smiles": "OC[C@@H]1O[C@@H](O[C@H]2[C@H](O[C@@H]3OC[C@@H](O[C@@H]4OC[C@@H](O[C@@H]5OC[C@@H](O)[C@H](O)[C@H]5O)[C@H](O)[C@H]4O)[C@H](O)[C@H]3O)COC(O)[C@@H]2O)[C@H](O)[C@H]1O", "note": "(stereo partly drawn) [Xylp-β-1,4-Xylp-β-1,4-Xylp-[α-1,3-Araf]-β-1,4-Xylp]", "values": [{"measurement": "X-ray crystal structure, co-crystal, 1.65 Å", "value": "co-crystallizing the nucleophile inactive mutant CtGH5E279S-CtCBM6 with a WAX-derived oligosaccharide"}]}
